Data: US20150064763A1, “Method for Producing Hydrocarbons and Oxygen-containing Compounds from Biomass” (SWEDISH BIOFUELS AB, priority 2003, published 2015)

Molecular target: formation of C3-C5 alcohols
Experiment: Inhibition of C3-C5 alcohols formation in alcohol fermentation by yeast
Format: cell-based
Settings: for inhibition constant: formation of C3-C5 alcohols in alcohol fermentation; for effect on formation of C3-C5 alcohols: present in the substrate in addition to valine, leucine and isoleucine
Description: Formation of C3-C5 alcohols is a result of active functioning of the process of deamination of amino acids in the yeast cells with formation of free ammonia. […] The yield of C3-C5 alcohols reached 3.1% of ethanol when pure valine, isoleucine, and leucine were the sole source of nitrogen nutrition of the yeast in the inventive fermentation process. Moreover, the maximum formation of C3-C5 alcohols in the inventive process of alcohol fermentation occurred at pH=6.0 of the medium and at 38° C. (standard conditions of alcohol fermentation pH 4.5-5.5; temperature 28-34° C.).

[1] = system with leucine as amino acid

Row | Compound | inhibition constant [1] | effect on formation of C3-C5 alcohols | inhibition constant (system with valine as amino acid)
1 | N.N.O=S(=O)(O)O [ammonium sulphate] | 750 mg/L | – | –
2 | NC(=O)C[C@H](N)C(=O)O [asparagine] | 730 mg/L | inhibits formation of C3-C5 alcohols | 650 mg/L
3 | N [ammonium ions] | – | inhibits formation of C3-C5 alcohols | –
